The values that follow come from patent publication US20140350111A1, “METHODS FOR TREATMENT AND PROPHYLAXIS AGAINST HEMORRHOIDS” (priority 2011, published 2014).

Where two headings read alike, the source gives them in different places.

The conditions of experiment [1]: one individual; 220 mg every day.
For experiment [2] the following is noted: three individuals; 660 mg at first noticeable symptom, then 440 mg three times daily at six-hour intervals. How it is done: After completing treatment in Example 1, three of the individuals at risk for hemorrhoids were treated at the onset of hemorrhoid symptoms to determine whether naproxen could halt or reverse the progression of the hemorrhoid symptoms.

For the compound `COc1ccc2cc([C@H](C)C(=O)O)ccc2c1` [naproxen sodium], for the setting “440 mg three times daily at six-hour intervals, the one remaining individual”, the “hemorrhoid symptoms after treatment, as reported by individuals” value is listed as “significant improvement in symptoms”. The “hemorrhoid symptoms after treatment, as reported by individuals” value (five individuals, 440 mg three times daily at six-hour intervals until symptoms abated, all treated individuals except one) is reported as “complete lack of hemorrhoid symptoms after treatment”. The “occurrence of emerging hemorrhoid symptoms under prophylaxis” value in experiment [1] is given as “has not experienced any emerging hemorrhoid symptoms”. Besides, in experiment [2], the “progression of emerging hemorrhoid symptoms” value was “symptoms did not worsen” and the “time to complete disappearance of all symptoms of hemorrhoids from commencement of treatment” value is 12 to 24 h.
